Laboratory results as given in publication PMC4460250, “Systems Pharmacology Dissecting Holistic Medicine for Treatment of Complex Diseases: An Example Using Cardiocerebrovascular Diseases Treated by TCM” (Evidence-based Complementary and Alternative Medicine : eCAM, 2015).
Like-named read-outs stand apart in the source and are kept apart here.

Columns and labels:
[1] = cited from earlier work
[2] = Human intestinal absorption percentage values of the PreHIA data set (732 compounds, Table S2); details: class from HIA value
[3] = in vivo
[4] = human, PreHIA data set, value given as fraction

SMILES | HIA(Human Intestinal Absorption) [1, 4] | Class(High: HIA value ≥0.7; Low: HIA value < 0.7) [2] | Class(High: HIA value ≥0.7; Low: HIA value < 0.7) [3] | HIA(Human Intestinal Absorption) ([1]; in vivo)
Clc1ccc2c(c1)C(N1CCNCC1)=Nc1ccccc1O2 [Amoxapine] | 0.95 | High (High: HIA value ≥0.7) |  | 
CC1(C)S[C@@H]2[C@H](NC(=O)[C@H](N)c3ccc(O)cc3)C(=O)N2[C@H]1C(=O)O [Amoxicillin] |  | High (High: HIA value ≥0.7) |  | 
NS(=O)(=O)c1cc(-c2nnn[nH]2)c(NCc2cccs2)cc1Cl [Azosemide] | 0.1 | Low (Low: HIA value < 0.7) |  | 
CC(=O)Nc1ccc(OC(=O)c2ccccc2OC(C)=O)cc1 [Benorylate] | 1 | High (High: HIA value ≥0.7) |  | 
CN(Cc1cc(Br)cc(Br)c1N)C1CCCCC1 [Bromhexine] | 0.7 | High (High: HIA value ≥0.7) |  | 
O=C1CC2(CCCC2)CC(=O)N1CCCCN1CCN(c2ncccn2)CC1 [Buspirone] | 1 | High (High: HIA value ≥0.7) |  | 
CCCC[N+]1(C)[C@@H]2C[C@@H](OC(=O)[C@H](CO)c3ccccc3)C[C@H]1[C@@H]1O[C@@H]12 (stereo partly shown) [Butylscopolamine] | 0.1 | Low (Low: HIA value < 0.7) |  | 
C[N+](C)(C)CC(O)CC(=O)[O-] (stereo not shown) [Carnitine] | 0.1 | Low (Low: HIA value < 0.7) |  | 
O=C(O)[C@H](CCc1ccccc1)N[C@H]1CCCN2CCC[C@@H](C(=O)O)N2C1=O [Cilazaprilat] | 0.2 | Low (Low: HIA value < 0.7) |  | 
C=C[C@H]1C[N@@]2CC[C@H]1C[C@@H]2[C@@H](O)c1ccnc2ccccc12 [Cinchonine] | 1 | High (High: HIA value ≥0.7) |  | 
O=C(O)[C@H]1/C(=C/CO)O[C@@H]2CC(=O)N21 [Clavulanic_acid] | 0.75 | High (High: HIA value ≥0.7) |  | 
CN1CCC(=C2c3ccccc3C=Cc3ccccc32)CC1 [Cyproheptadine] | 0.8 | High (High: HIA value ≥0.7) |  | 
CCN(CC)CCOC(=O)C1(C2CCCCC2)CCCCC1 [Dicyclomine] | 1 | High (High: HIA value ≥0.7) |  | 
CN1C[C@H](C(=O)N[C@]2(C)O[C@@]3(O)[C@@H]4CCCN4C(=O)[C@H](Cc4ccccc4)N3C2=O)C[C@@H]2c3cccc4[nH]cc(c34)C[C@H]21 [Dihydroergotamine] | 0.35 | Low (Low: HIA value < 0.7) |  | 
CN(C(=O)C(Cl)Cl)c1ccc(O)cc1 [Diloxanide] | 0.9 | High (High: HIA value ≥0.7) |  | 
C[N+]1(C)CCC(=C(c2ccccc2)c2ccccc2)CC1 [Diphemanil] | 0.07 | Low (Low: HIA value < 0.7) |  | 
CN(C)CCC=C1c2ccccc2COc2ccccc21 [Doxepin] | 1 | High (High: HIA value ≥0.7) |  | 
NC(=O)OCC(COC(N)=O)c1ccccc1 [Felbamate] | 0.9 | High (High: HIA value ≥0.7) |  | 
CC(C)=CCC1C(=O)N(c2ccccc2)N(c2ccccc2)C1=O [Feprazone] | 0.9 | High (High: HIA value ≥0.7) |  | 
O=CN(O)CCCP(=O)(O)O [Fosmidomycin] | 0.3 | Low (Low: HIA value < 0.7) |  | 
C[C@H]([C@](O)(Cn1cncn1)c1ccc(F)cc1F)S(C)(=O)=O [Genaconazole] | 1 | High (High: HIA value ≥0.7) |  | 
COCCOc1cnc(NS(=O)(=O)c2ccccc2)nc1 [Glymidine] | 0.95 | High (High: HIA value ≥0.7) |  | 
N=C(N)NC(=O)Cc1c(Cl)cccc1Cl [Guanfacine] | 1 | High (High: HIA value ≥0.7) |  | 
O=C(c1ccc(F)cc1)C1CCN(CCn2c(=O)[nH]c3ccccc3c2=O)CC1 [Ketanserin] | 1 | High (High: HIA value ≥0.7) |  | 
CC(=O)N1CCN(c2ccc(OCC3COC(Cn4ccnc4)(c4ccc(Cl)cc4Cl)O3)cc2)CC1 (stereo not shown) [Ketoconazole] | 0.75 | High (High: HIA value ≥0.7) |  | 
CN1CCC(=C2c3ccccc3CC(=O)c3sccc32)CC1 [Ketotifen] | 0.9 | High (High: HIA value ≥0.7) |  | 
CCOC(=O)C1=C(C)NC(C)=C(C(=O)OCC)C1c1ccccc1/C=C/C(=O)OC(C)(C)C [Lacidipine] | 0.98 | High (High: HIA value ≥0.7) |  | 

SMILES | HIA(Human Intestinal Absorption) [1, 4] | Class(High: HIA value ≥0.7; Low: HIA value < 0.7) [2] | Class(High: HIA value ≥0.7; Low: HIA value < 0.7) [3] | HIA(Human Intestinal Absorption) ([1]; in vivo)
C[C@@H]1CC(=O)NN=C1c1ccc(NN=C(C#N)C#N)cc1 [Levosimendan] | 0.9 | High (High: HIA value ≥0.7) |  | 
CCOC(=O)N1CCC(=C2c3ccc(Cl)cc3CCc3cccnc32)CC1 [Loratadine] |  | High (High: HIA value ≥0.7) |  | 
CN1C(C(=O)Nc2ccccn2)=C(O)c2sc(Cl)cc2S1(=O)=O [Lornoxicam] | 1 | High (High: HIA value ≥0.7) |  | 
C#C[C@]1(O)CC[C@H]2[C@@H]3CCC4=CCCC[C@@H]4[C@H]3CC[C@@]21C [Lynestrenol] | 1 | High (High: HIA value ≥0.7) |  | 
Cc1ccc(Cl)c(Nc2ccccc2C(=O)O)c1Cl [Meclofenamic_acid] | 1 | High (High: HIA value ≥0.7) |  | 
COc1ccc2cc(CCC(C)=O)ccc2c1 [Nabumetone] | 0.8 | High (High: HIA value ≥0.7) |  | 
CNS(=O)(=O)CCc1ccc2[nH]cc(C3CCN(C)CC3)c2c1 [Naratriptan] | 0.7 | High (High: HIA value ≥0.7) |  | 
O=[N+]([O-])c1ccc(O)c2ncccc12 [Nitroxoline] | 1 | High (High: HIA value ≥0.7) |  | 
CCOC(=O)C1=C[C@@H](OC(CC)CC)[C@H](NC(C)=O)[C@@H](N)C1 [Oseltamivir] | 0.75 | High (High: HIA value ≥0.7) |  | 
C[C@@H]1O[C@@H](O[C@H]2C[C@@H](O)[C@]3(CO)[C@H]4[C@H](O)C[C@]5(C)[C@@H](C6=CC(=O)OC6)CC[C@]5(O)[C@@H]4CC[C@]3(O)C2)[C@H](O)[C@H](O)[C@H]1O [Ouabain] |  | Low (Low: HIA value < 0.7) |  | 
O=c1[nH]c2ccccc2n1CCCN1CCN(C(c2ccccc2)c2ccccc2)CC1 [Oxatomide] | 1 | High (High: HIA value ≥0.7) |  | 
CC[N+]1(C)[C@@H]2CC(OC(=O)[C@H](CO)c3ccccc3)C[C@H]1[C@@H]1O[C@@H]12 (stereo partly shown) [Oxitropium] | 0.16 | Low (Low: HIA value < 0.7) |  | 
CC(C)NCC(O)COc1ccc(CCNC(=O)NC(C)C)cc1 (stereo not shown) [Pafenolol] | 0.29 | Low (Low: HIA value < 0.7) |  | 
COc1ccnc(C[S+]([O-])c2nc3ccc(OC(F)F)cc3[nH]2)c1OC (stereo not shown) [Pantoprazole] | 0.77 | High (High: HIA value ≥0.7) |  | 
C[N+]1(CCCCC[N+]2(C)CCCC2)CCCC1 [Pentolinium] | 0.05 | Low (Low: HIA value < 0.7) |  | 
CCc1[nH]c(=O)[nH]c1C(=O)c1ccncc1 [Piroximone] | 0.8 | High (High: HIA value ≥0.7) |  | 
CCCOC(C(=O)OC1CCN(C)CC1)(c1ccccc1)c1ccccc1 [Propiverine] | 0.84 | High (High: HIA value ≥0.7) |  | 
CCCc1cc(C(N)=S)ccn1 [Protionamide] | 0.9 | High (High: HIA value ≥0.7) |  | 
Oc1ccc(C(O)C2CCCCN2)cc1O (stereo not shown) [Rimiterol] | 0.48 | Low (Low: HIA value < 0.7) |  | 
O=P(O)(O)C(O)(Cc1cccnc1)P(=O)(O)O [Risedronic_acid] | 0.01 | Low (Low: HIA value < 0.7) |  | 
COc1ccc(CCN(C)CCCN2CCc3cc(OC)c(OC)cc3CC2=O)cc1OC [Zatebradin] |  |  | High (key: High: HIA value ≥0.7; Low: HIA value < 0.7) | 0.79
C[C@H](c1cc2ccccc2s1)N(O)C(N)=O [Zileuton(R)] |  |  | High (key: High: HIA value ≥0.7; Low: HIA value < 0.7) | 1
C[C@@H](c1cc2ccccc2s1)N(O)C(N)=O [Zileuton(S)] |  |  | High (key: High: HIA value ≥0.7; Low: HIA value < 0.7) | 1
Cc1ccc(-c2nc3ccc(C)cn3c2CC(=O)N(C)C)cc1 [Zolpidem] |  |  | High (key: High: HIA value ≥0.7; Low: HIA value < 0.7) | 0.95
CN1CCN(C(=O)O[C@@H]2c3nccnc3C(=O)N2c2ccc(Cl)cn2)CC1 [Zopiclone(R)] |  |  | High (key: High: HIA value ≥0.7; Low: HIA value < 0.7) | 0.98
CN1CCN(C(=O)O[C@H]2c3nccnc3C(=O)N2c2ccc(Cl)cn2)CC1 [Zopiclone(S)] |  |  | High (key: High: HIA value ≥0.7; Low: HIA value < 0.7) | 0.98
